What was measured:
[1] = system: HCT116 p53 R175H; assay: CellTiter-Glo (Cell-Titer glow) cytotoxicity assay; assay type: cell-based, human; details: forty-eight hours
Procedure: (§1) CellTiter-Glo® luminescent cell viability assay. Cells were seeded in 96-well plates at a density of 5×10^3 cells per well. 20 μL of CellTiter-Glo® Reagent was added directly to the wells, following the manufacturers protocol. The bioluminescence signal was determined using an IVIS imaging system, optionally at a period of 48-72 hours after treatment.
Overexpression of p53 R175H mutant by lentivirus infection. HCT116 p53^−/− cells, obtained from the Vogelstein Laboratory, Johns Hopkins University, were infected with a lentivirus vector containing the p53 R175H mutant (pLenti6/V5-p53_R175H, Addgene). Cells were selected with blasticidin (8 μg/mL)-containing media cultured for ten days. Blasticidin-resistant clones (pooled clones) were screened for expression of the p53 R175H mutation by Western blot analysis with p53 DO-1 antibody.
(§2) CB002-analog #4 is a potent anti-tumor agent in vitro and in vivo. The inventors focused on lead CB002-analog #4 and investigated its therapeutic index in vitro and in vivo. The inventors treated an isogenic HCT116 cell line panel with 100 μM CB002 or 25 μM CB002-analog #4 and established IC50 values by the Cell-Titer glow cytotoxicity assay. Across this panel, CB002-analog #4 has a 20-fold to 30-fold range in IC50 values, independently of the HCT116 p53-status.

[2] = system: HCT116 p53+/+; assay: CellTiter-Glo (Cell-Titer glow) cytotoxicity assay; assay type: cell-based, human; details: forty-eight hours
Procedure: as §1, §2

[3] = system: HCT116 p53−/−; assay: CellTiter-Glo (Cell-Titer glow) cytotoxicity assay; assay type: cell-based, human; details: forty-eight hours
Procedure: as §1, §2

[4] = system: HCT116 p53 R273H; assay: CellTiter-Glo (Cell-Titer glow) cytotoxicity assay; assay type: cell-based, human; details: forty-eight hours
Procedure: as §1, §2

[5] = system: colorectal cancer patient-derived organoid; assay: Cytotoxicity and immunofluorescence in patient-derived organoid; assay type: cell-based, human; details: for cleaved caspase-3 staining (apoptotic cells): IC50 doses; for ethidium homodimer staining (dead cells): compared to vehicle control
Procedure: as §1
Immunohistochemistry. 30,000 cells/well were seeded in 8-chamber slides. Cells were washed with phosphate-buffered saline at the harvesting time point and fixed with 4% parafornaldehyde for 25 minutes. Cells were then washed with phosphate-buffered saline and permeabilized with 0.2% Triton X-100 for 5-10 minutes. Cells were then washed with phosphate-buffered saline and incubated overnight 1:100 with the primary antibody Cyt-C (#sc-13560, Santa Cruz Biotechnology, Santa Cruz, Calif., USA), Tom-20 (#42406), commercially available from Cell Signaling Technology, Inc., Danvers, Mass. USA), cells were washed with phosphate-buffered saline and incubated with secondary antibody 1:200 goat-anti mouse Alexa Fluor 488 (#A-11008, Thermo Fisher Scientific, Waltham, Mass., USA) and Cy3 AffiniPure Donkey anti-rabbit (#711-165-152, Jackson ImmunoResearch, West Grove, Pa., USA) for one hour followed by phosphate-buffered saline washing, 1:400 Dapi staining, washed with phosphate-buffered saline, and imaged. Organoid viability imaging was determined by CellTrace™ Calcein Green (#C34852, Thermo Fisher Scientific, Waltham, Mass., USA), Ethidium Homodimer-1 (#E1169, Thermo Fisher Scientific, Waltham, Mass., USA), Ki67 incubated at 37° C. for one hour then washed with phosphate-buffered saline and imaged. Imaging was done using a Leica Confocal Microscope.

[6] = system: SW480 shNoxa cells; assay: Tumor xenograft efficacy in NSG mice, Noxa knockdown; assay type: in vivo; details: compared to vehicle control
Procedure: Knockdown expression of NOXA by lentivirus infection. A NOXA shRNA plasmid construct was amplified according to the manufacturers recommendation (TRC Lentiviral Human PMAIP1 shRNA, Dharmacon). Plasmid DNA was isolated using the PureLink® HiPure Plasmid Filter Maxiprep Kit (Invitrogen) according to the manufacturers instructions. Lentivirus production was performed by transfecting HEK293T cells at a density of 8×10^6 cells per 10-cm dish with 1.6 μg pMD2.G envelope plasmid, 3.2 μg psPAX2 packaging vector, 3.2 μg plasmid DNA, and 24 μL of Lipofectamine® Transfection reagent 2000 (Life Technologies) in a total volume of the reaction of 1 mL of antibiotic-free DMEM media for 6-10 hours. The media was then replaced with antibiotic-free DMEM. Lentiviral particles were collected between forty-eight to seventy-two hours. SW480 cells ([…] cells per well in a 12-well plate) were infected 1:1 (virus-containing media: antibiotic-free DMEM media, total volume 1 mL) for twenty-four hours. Then, the media was replaced with DMEM complete media for an additional twenty-four hours. […]
Drug efficacy using in vivo tumor xenografts. […] Mouse weight and tumor measurements were recorded one-two times per week. Tumor volume was calculated as V=0.5*L*W^2, where L is length and W is the width of the tumor. […]

| SMILES | IC50 ([1]; Homo sapiens, HCT-116) [µM] | IC50 ([2]; Homo sapiens, HCT-116) [µM] | IC50 ([3]; Homo sapiens, HCT-116) [µM] | IC50 ([4]; Homo sapiens, HCT-116) [µM] | cleaved caspase-3 staining (apoptotic cells) [5] | ethidium homodimer staining (dead cells) [5] | IC50 [1] [µM] | IC50 [2] [µM] | IC50 [3] [µM] | IC50 [4] [µM] | tumor volume [6] | organoid size (calcein staining) [5] | Ki-67 staining (proliferating cells) ([5]; seventy-two hours, dose-dependent) | cytotoxicity (cell viability response curve) ([5]; versus CB002 parent compound) |
| --- | --- | --- | --- | --- | --- | --- | --- | --- | --- | --- | --- | --- | --- | --- |
| Cn1c(=O)c2[nH]c(Nc3ccccc3)nc2n(C)c1=O [CB002] | 400 | 242 | 161 | 140 | increases apoptotic cells | increase of ethidium homodimer staining | – | – | – | – | – | – | – | – |
| Cn1c(=O)c2[nH]c(Nc3cccc(C(F)(F)F)c3)nc2n(C)c1=O [CB002-analog #4] | – | – | – | – | increases apoptotic cells | increase of ethidium homodimer staining | 4.46 | 8.69 | 8.83 | 8.09 | did not differ in tumor volume | smaller in size | decreases the population of proliferating cells | enhances cytotoxicity compared to the CB002 parent compound |

— patent publication US20230219957A1, “SMALL MOLECULE CB002-ANALOGES RESTORE THE P53 PATHWAY AND TARGET S-PHASE CHECKPOINT” (Brown University, priority 2020, published 2023)
